For 55 molecules, inhibition and IC50 results are on record in US20250340543A1, “GPR84 ANTAGONISTS AND USES THEREOF” (Liminal BioSciences Limited, priority 2021, published 2025).

In the experiment the target is GPR84 (Homo sapiens (Human), UniProt Q9NQS5). The experiment in a line: Gai biosensor BRET assay (GPR84-mediated activation of Gai, antagonist mode against agonist ZQ-16). To be noted: for inhibition at 25 µM: compound tested at 25 μM (concentration code G); for inhibition at 10 µM: compound tested at 10 μM (concentration code D); for IC50: HEK293 cells, 200 nmol/L GPR84 agonist ZQ-16, read-out: hGPR84 IC50; for inhibition at 12.5 µM: compound tested at 12.5 μM (concentration code E); for inhibition at 15 µM: compound tested at 15 μM (concentration code F). The format is cell-based. The text has this: Background—The following assays can be used for determination of GPR84 activation in living HEK293 cells. […] The Gai biosensor consists of a Rluc8-tagged Gαi2 subunit, a GFP10-tagged Gγ2 subunit, and an untagged Gβ1. […] Moreover, signaling functions of GPCRs are tightly regulated by endocytosis, the targeting of receptors to endosomes and their sorting to lysosomes or recycling to the plasma membrane. […] Agonist stimulation of GPR84—Rluc8 leads to trafficking of the receptor to EEs, and ensuing increase of the donor concentration relative to the rGFP-FYVE acceptor anchored in the same cellular compartment, and thus results in an increase in BRET signal.
Sequence of GPR84 (Q9NQS5 whole entry): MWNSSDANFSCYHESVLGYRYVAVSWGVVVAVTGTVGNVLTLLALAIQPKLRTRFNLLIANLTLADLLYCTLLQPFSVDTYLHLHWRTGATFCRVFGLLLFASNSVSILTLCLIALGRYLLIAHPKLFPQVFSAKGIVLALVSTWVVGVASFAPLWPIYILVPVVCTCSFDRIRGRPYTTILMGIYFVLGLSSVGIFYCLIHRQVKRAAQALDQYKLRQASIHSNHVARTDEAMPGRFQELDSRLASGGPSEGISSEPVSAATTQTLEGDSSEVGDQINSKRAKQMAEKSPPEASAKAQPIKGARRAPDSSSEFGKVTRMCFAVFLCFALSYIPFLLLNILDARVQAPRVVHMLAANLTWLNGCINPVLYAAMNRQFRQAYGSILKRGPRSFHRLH
Plasmids—The cDNA clones for human GPR84 receptor, human Gαi2, Gβ1, and Gγ2 were obtained from the cDNA Resource Center (www.cdna.org). GFP10 (F64L, S147P, S202F and H231L variant of Aequorea victoria Green Fluorescent Protein) gBlocks gene fragments (Integrated DNA Technologies, IA) and linker were inserted in frame at the N-terminus of human Gγ2. Rluc8 (A55T, C124A, S130A, K136R, A143M, M185V, M253L, and S287L variant of the Renilla renformis luciferase) gBlocks gene fragment was inserted with linkers in frame in between residues 91 and 92 of Gαi2 or at the C-terminus of GPR84. The FYVE domain from human endofin (residues Q739 to K806) attached in frame at the C terminus of a humanized Renilla GFP (rGFP), were synthesized as gBlocks gene fragments.
Bioluminescence Resonance Energy Transfer (BRET) Measurement—HEK293 cells were transfected with GPR84—Rluc8 and rGFP-FYVE for the EEs trafficking biosensor or with GPR84, Gαi2—Rluc8, GFP10-Gγ2, and Gβ1 for the Gai biosensor. The following day, transiently transfected cells were seeded in 96-well white clear bottom microplates coated with poly-D-lysine and left in culture for 24 hours. Cells were washed once with Tyrode's buffer (140 mmol/L NaCl, 1 mmol/L CaCl2, 2.7 mmol/L KCl, 0.49 mmol/L MgCl2, 0.37 mmol/L NaH2PO4, 5.6 mmol/L glucose, 12 mmol/L NaHCO3, and 25 mmol/L HEPES, pH 7.5) before performing assays in Tyrode's buffer. Test compounds were incubated with cells for 5 (Gai) or 15 (EEs) minutes at 37° C. before addition of 200 nmol/L of the GPR84 agonist ZQ-16 (2-(Hexylthio)-6-hydroxy-4(3H)-pyrimidinone) for 5 minutes at room temperature (Gai) or 30 minutes at 37° C. (EEs). The Rluc8 substrate coelenterazine 400A (Prolume, Lakeside, AZ) was added at a final concentration of […] and BRET readings were collected using an Infinite M1000 microplate reader (Tecan, Morrisville, NC). BRET^2 readings between Rluc8 and GFP10 or rGFP were collected by sequential integration of the signals detected in the 370 to 450 nm (Rluc8) and 510 to 540 nm (GFP10, rGFP) windows. The BRET signal was calculated as the ratio of light emitted by acceptor (GFP10, rGFP) over the light emitted by donor (Rluc8). The values were corrected to net BRET by subtracting the background BRET signal obtained in cells transfected with Rluc8 constructs alone. Ligand-promoted net BRET values were calculated by subtracting vehicle-induced net BRET from ligand-induced net BRET.
For orientation: In BRET a luciferase serves as donor, and the signal depends on an acceptor being close.

Broadly, the inhibition is the percentage by which the read-out fell short of the control. Low readings indicate a weak effect, high ones a strong effect. For orientation: IC50 means the concentration that inhibits the measured activity by half.

SMILES strings stand for the structures. Bounds are passed on as bounds.

Regarding `Cc1ccc(-c2ccc(-c3nc(OCC4COCCO4)cc(=O)n3C)cc2)cn1` (stereo not drawn) [Compound I-47], the inhibition at 25 µM was 25 to 50%.
As for `Cc1cc(OCc2ccccn2)ccc1-c1cc(OCC2COc3ncccc3O2)cc(=O)[nH]1` (stereo not drawn) [Compound I-48], the inhibition at 10 µM fell in the range of 25 to 50%.
On the same count and under the same terms, to `Cc1c(C#CC2CC2)cccc1Cn1c(C)cc(OC[C@H]2COCCO2)cc1=O` [Compound I-49] belongs 25 to 50%.
Same read-out and setting: to `CCc1cc(OCC2COCCO2)cc(=O)n1C(C)c1ccc(C#CC2CC2)cc1` (stereo not drawn) [Compound I-50] belongs 25 to 50%.
Take `COc1cc(OCC2COCCO2)cc(-c2ccc(-c3ccc(C)nc3)cc2)n1` (stereo not drawn) [Compound I-51]: the IC50 was more than 25 µM and the inhibition at 25 µM was in the range of 25 to 50%.
The molecule `Cc1c(-c2ccc(OCC(F)(F)F)cc2)n(C)c(OCC2COCCO2)cc1=O` (stereo not drawn) [Compound I-52] yielded an inhibition at 12.5 µM of 25 to 50%.
`FC(F)(F)COc1ccc(-c2cncc(OCC3COCCO3)c2)cc1` (stereo not drawn) [Compound I-53] came in with an inhibition at 25 µM of 25 to 50%.
Same read-out and setting: in the case of `C(#CC1CC1)c1ccc(-c2cc(OCC3CCCCO3)ncn2)cc1` (stereo not drawn) [Compound I-54] it was less than 25%.
The molecule `CC(C)c1cc(OCC2COCCO2)cc(OCc2ccc(C#CC3CC3)cc2)n1` (stereo not drawn) [Compound I-55] yielded an inhibition at 25 µM of less than 25%.
Molecule `Cc1cc(OCC(F)(F)F)ccc1-c1cncc(OCC2CCCCO2)c1` (stereo not drawn) [Compound I-56] yielded an inhibition at 10 µM of 25 to 50%.
`COc1cc(OCC2COc3ncccc3O2)cc(-c2ccc(-c3ccc(C)nc3)cc2C)n1` (stereo not drawn) [Compound I-57] came in with an inhibition at 2 µM (compound tested at 2 μM (concentration code A)) of 25 to 50%.
Turning to `Cc1cc(OCc2ccccn2)ccc1-c1cc(OCC2COCCO2)cc(Cl)n1` (stereo not drawn) [Compound I-58], the IC50 was more than 12.5 µM and the inhibition at 12.5 µM lay within 25 to 50%.
For `[O-][n+]1cc(OCC2COCCO2)cc(-c2ccc(OCC(F)(F)F)cc2)c1` (stereo not drawn) [Compound I-59], the inhibition at 25 µM lay in the range of 25 to 50%.
Same read-out and setting: in the case of `Cn1c(-c2ccc(OCC(F)(F)F)cc2)cc(OCC2COCCO2)nc1=O` (stereo not drawn) [Compound I-62] it was less than 25%.
Still for that read-out and setting: to `Cc1cc(OCC2COCCO2)cc(=O)n1Cc1cccc(OCc2ccccn2)c1` (stereo not drawn) [Compound I-63] belongs less than 25%.
`COc1cc(OCC2COc3cccnc3O2)cc(-c2ccc(-c3ccc(C)nc3)cc2C)n1` (stereo not drawn) [Compound I-64]: the inhibition at 5 µM (compound tested at 5 μM (concentration code C)) was less than 25%.
As for `Cc1cc(OCC2COc3ccccc3O2)cc(=O)n1C(C)c1ccc(C#CC2CC2)cc1` (stereo not drawn) [Compound I-65], the inhibition at 10 µM is less than 25%.
`COc1cc(OCC2COCCO2)cc(-c2cccc(-c3ccc(C)nc3)c2)n1` (stereo not drawn) [Compound I-66] yielded an inhibition at 15 µM of less than 25%.
`Cn1c(-c2ccc(C#CC3CC3)cc2)cc(OCC2COCCO2)cc1=O` (stereo not drawn) [Compound I-67] had an inhibition at 25 µM of less than 25%.
As to `Cc1cc(OCC2COCCO2)cc(=O)n1C(C)c1ccc(C#CC(C)(C)C)cc1` (stereo not drawn) [Compound I-68], the inhibition at 10 µM is less than 25%.
Consider `COc1cc(OCC2COCCO2)cc(-c2cc(C#CC3CC3)ccc2C)n1` (stereo not drawn) [Compound I-70], for which the inhibition at 25 µM was less than 25%.
Regarding `Cc1cc(OCc2ccccn2)ccc1-c1cc(OCC2COCCO2)cc(=O)[nH]1` (stereo not drawn) [Compound I-71], the inhibition at 25 µM was less than 25%.
In the case of `CCc1cc(OCC2COCCO2)cc(OCc2ccc(C#CC3CC3)cc2)n1` (stereo not drawn) [Compound I-72], the inhibition at 25 µM was less than 25%.
The molecule `Cc1cc(OCC2COc3ccccc3O2)cc(=O)n1Cc1ccc(C#CC2CC2)cc1` (stereo not drawn) [Compound I-73] showed an inhibition at 12.5 µM of less than 25%.
`COc1cc(NC(=O)C2CCCCO2)cc(-c2ccc(C#CC3CC3)cc2)n1` (stereo not drawn) [Compound I-75] showed an inhibition at 25 µM of less than 25%.
`Cc1cc(OCC2COCCO2)cc(=O)n1C(C)c1ccc(C#CC2CC2)cn1` (stereo not drawn) [Compound I-76] returned an inhibition at 10 µM of less than 25%.
Molecule `O=c1nc(OCC2COCCO2)ccn1Cc1cc(OCC(F)(F)F)ccc1Br` (stereo not drawn) [Compound I-77] displayed an inhibition at 25 µM of less than 25%.
Same read-out and setting: in the case of `COc1c(C)cc(OCC2COCCO2)nc1-c1ccc(OCC(F)(F)F)cc1` (stereo not drawn) [Compound I-78] it was less than 25%; in that of `COc1cc(OCC2COCCO2)cc(-c2cc(C#CCNc3ccccc3)ccc2C)n1` (stereo not drawn) [Compound I-79], less than 25%; in that of `COc1ccc(CN2CCN(c3cc(OCC4COCCO4)nc(=O)n3C)CC2)cc1` (stereo not drawn) [Compound I-81], less than 25%.
The molecule `Cc1cc(OCC2COCCO2)cc(=O)n1Cc1cccc(OCc2ccccc2)c1` (stereo not drawn) [Compound I-82] yielded an inhibition at 10 µM of less than 25%.
In turn, `COc1cc(NC(=O)C2CCCCO2)cc(-c2cccc(C#CC3CC3)c2)n1` (stereo not drawn) [Compound I-84] returned an inhibition at 25 µM of less than 25%.
`Cc1cc(OCC2COCCO2)nc(OCc2ccc(C#CC3CC3)cc2)n1` (stereo not drawn) [Compound I-85] displayed an inhibition at 15 µM of less than 25%.
As for `Cc1ccc(N2CCN(c3cc(OCC4COCCO4)nc(=O)n3C)CC2)cn1` (stereo not drawn) [Compound I-86], the inhibition at 25 µM is less than 25%.
As for `Cc1cc(OCC2COCCO2)cc(=O)n1C(C)c1cccc(C#CC2CC2)c1` (stereo not drawn) [Compound I-88], the inhibition at 10 µM is less than 25%.
In turn, `COc1cc(OCC2COCCO2)cc(-c2ccc(C#CC3CC3)cc2C)n1` (stereo not drawn) [Compound I-90] registered an inhibition at 25 µM of less than 25%.
As to `Cc1ccc(-c2ccc(Cn3c(C)cc(OCC4COCCO4)cc3=O)cc2)cn1` (stereo not drawn) [Compound I-91], the inhibition at 25 µM was less than 25%.
`Cc1nc(OCc2ccc(C#CC3CC3)cc2)cc(OCC2COCCO2)n1` (stereo not drawn) [Compound I-92] displayed an inhibition at 25 µM of less than 25%.
On to `Cc1ccc(-c2ccc(-c3cc(OCC4COCCO4)cc(Cl)n3)c(C)c2)cn1` (stereo not drawn) [Compound I-93], for which the inhibition at 25 µM was less than 25%.
`COc1cc(OCC2COCCO2)nc(-c2ccc(OCC(F)(F)F)cc2)c1OC` (stereo not drawn) [Compound I-94] gave an inhibition at 25 µM of less than 25%.
`COc1cc(OCC2COCCO2)cc(-c2cc(-c3ccc(C)nc3)ccc2C)n1` (stereo not drawn) [Compound I-95]: the inhibition at 25 µM was less than 25%.
Regarding `Cc1cc(OCC2COCCO2)cc(=O)n1Cc1cccc(C#CC(C)(C)C)c1` (stereo not drawn) [Compound I-96], the inhibition at 10 µM is less than 25%.
On the same count and under the same terms, to `Cc1cc(OCC2COCCO2)cc(=O)n1Cc1cccc(C#CCNCc2ccccc2)c1` (stereo not drawn) [Compound I-97] belongs less than 25%.
`COc1cc(NC(=O)C2COCCO2)cc(-c2ccc(C#CC3CC3)cc2)n1` (stereo not drawn) [Compound I-98]: the inhibition at 25 µM is less than 25%.
For the molecule `Cc1cc(OCC2COCCO2)cc(=O)n1C(C)c1ccc(OCC(F)(F)F)cc1` (stereo not drawn) [Compound I-99], the inhibition at 10 µM is less than 25%.
On the same count and under the same terms, in the case of `Cc1cc(C#CC2CC2)ccc1C(C)n1c(C)cc(OCC2COCCO2)cc1=O` (stereo not drawn) [Compound I-100] it was less than 25%.
For `Cc1cc(C#CC2CC2)ccc1Cn1c(C)cc(OCC2COCCO2)cc1=O` (stereo not drawn) [Compound I-101], the inhibition at 25 µM is less than 25%.
The same measure, in the same setting: to `O=c1nc(OCC2COCCO2)cc(-c2ccc(OCC(F)(F)F)cn2)[nH]1` (stereo not drawn) [Compound I-102] belongs less than 25%.
In the case of `COc1nc(OCC2COCCO2)cc(-c2ccc(C#CC3CC3)cc2C)n1` (stereo not drawn) [Compound I-103], the inhibition at 25 µM was less than 25%.
Still for that read-out and setting: to `Cc1ccc(-c2ccc(-c3cc(OCC4COCCO4)cc(Cl)n3)cc2)cn1` (stereo not drawn) [Compound I-105] belongs less than 25%.
As to `Cc1cc(OCC2COc3ncccc3O2)cc(=O)n1C(C)c1ccc(C#CC2CC2)cc1` (stereo not drawn) [Compound I-106], the inhibition at 10 µM is more than 75%.
In turn, `Clc1cc(OCC2COCCO2)cc(-c2ccc(OCc3ccccn3)cc2)n1` (stereo not drawn) [Compound I-107] gave an inhibition at 12.5 µM of less than 25%.
In the case of `Cc1cc(C#CC2CC2)ccc1-c1cc(OCC2COCCO2)cc(Cl)n1` (stereo not drawn) [Compound I-108], the inhibition at 25 µM was less than 25%.
The same measure, in the same setting: to `Clc1cc(OCC2COCCO2)cc(-c2ccc(C#CCNc3ccccc3)cc2)n1` (stereo not drawn) [Compound I-109] belongs less than 25%.
On the same count and under the same terms, to `COc1nc(OCC2COCCO2)cc(-c2ccc(OCC(F)(F)F)cc2)n1` (stereo not drawn) [Compound I-110] belongs less than 25%.
